Results on 5 molecules are retold here after patent US9302999B2, “Substituted triazoles as herbicides” (E. I. DU PONT DE NEMOURS AND COMPANY, priority 2012, dated 2016).

Assay type in all cases: in vivo
Experiment [1] deals with pigweed (Amaranthus retroflexus). Briefly: Test F postemergence: pigweed. As to conditions: scale 0 to 100. From the text: (§1) Seeds of plant species selected from corn (Zea mays), soybean (Glycine max), velvetleaf (Abutilon theophrasti), lambsquarters (Chenopodium album), poinsettia, wild (wild poinsettia, Euphorbia heterophylla), pigweed, palmer (palmer pigweed, Amaranthus palmeri), waterhemp (common waterhemp, Amaranthus rudis), surinam grass (Brachiaria decumbens), crabgrass, Brazil (Brazilian crabgrass, Digitaria horizontalis), panicum, fall (fall panicum Panicum dichotomiflorum), crabgrass, large (large crabgrass, Digitaria sanguinalis), foxtail, giant (giant foxtail, Setaria faberii), foxtail, green (green foxtail Setaria viridis), goosegrass (Eleusine indica), ragweed (common ragweed, Ambrosia elatior), barnyardgrass (Echinochloa crus-galli), sandbur (southern sandbur, Cenchrus echinatus), arrowleaf sida (Sida rhombifolia), ryegrass, Italian (Italian ryegrass, Lolium multiflorum), dayflower, VA (Virginia (VA) dayflower, Commelina virginica), field bindweed (Convolvulus arvensis), cocklebur (common cocklebur, Xanthium strumarium), morningglory (Ipomoea coccinea), nightshade (eastern black nightshade, Solanum ptycanthum), kochia (Kochia scoparia), nutsedge, yellow (yellow nutsedge, Cyperus esculentus), johnsongrass (Sorghum halepense), smartweed (ladysthumb smartweed, Polygonum persicaria), and beggarticks (hairy beggarticks, Bidens pilosa), were planted into a silt loam soil and treated preemergence with test chemicals formulated in a non-phytotoxic solvent mixture which included a surfactant. At the same time, plants selected from these crop and weed species and also pigweed (Amaranthus retroflexus), waterhemp_RES1 (ALS/Triazine resistant common waterhemp, Amaranthus rudis) and waterhemp_RES2 (ALS/HPPD resistant common waterhemp, Amaranthus rudis) were planted in pots containing a planting medium comprising spaghnum peat moss, vermiculite, wetting agent and starter nutrients treated with postemergence applications of some of the test chemicals formulated in the same manner. Plants ranged in height from 2 to 18 cm for postemergence treatments (1- to 4-leaf stage).
(§2) Treated plants and controls were maintained in a greenhouse for 14 to 21 days, after which time all species were compared to controls and visually evaluated. Plant response ratings, summarized in Table E, are based on a scale of 0 to 100 where 0 is no effect and 100 is complete control. A dash (-) response means no test result.

In experiment [2] the test system is waterhemp_RES2 (ALS/HPPD resistant common waterhemp, Amaranthus rudis). Briefly: Test F postemergence: waterhemp_RES2. As to conditions: scale 0 to 100.
From the text: as §1, §2

For experiment [3], the system named is Waterhemp. Briefly: Test C preemergence: waterhemp. As to conditions: scale 0 (no effect) to 100 (complete control).

As for `Cc1nn(-c2ccnc(Cl)c2)nc1Cc1ccnc(C(F)(F)F)c1` [Compound 141], the “Plant response rating, Pigweed” value in experiment [1] (8 g ai/ha) was determined as 90; in experiment [1] (16 g ai/ha) it was 95; in experiment [1] (31 g ai/ha), 95; in experiment [1] (62 g ai/ha), 95; in experiment [1] (125 g ai/ha), 95. Moreover, the “Plant response rating, Waterhemp, Res2” value in experiment [2] (8 g ai/ha) amounted to 85; in experiment [2] (16 g ai/ha), 95; in experiment [2] (31 g ai/ha), 95; in experiment [2] (62 g ai/ha), 95; in experiment [2] (125 g ai/ha), 100.
On to `FCc1nn(-c2ccc(F)cc2)nc1Oc1ccnc(C(F)(F)F)c1` [Compound 160], for which the “Plant response rating, Waterhemp” value in experiment [3] (16 g ai/ha) was 100.
Take `CCc1nn(-c2ccc(C(F)(F)F)cc2)nc1Oc1ccnc(C(F)(F)F)c1` [Compound 169]: the “Plant response rating, Waterhemp, Res2” value in experiment [2] (16 g ai/ha) was 75; in experiment [2] (31 g ai/ha) it was 85; in experiment [2] (62 g ai/ha), 95; in experiment [2] (125 g ai/ha) it was 100; in experiment [2] (250 g ai/ha), 100.
As to `CCOc1nn(-c2ccc(Cl)cc2)nc1Cc1ccnc(C(F)(F)F)c1` [Compound 188], the “Plant response rating, Waterhemp” value in experiment [3] (31 g ai/ha) worked out at 100.
For the molecule `CCOc1nn(-c2ccc(F)cc2)nc1Cc1ccnc(C(F)(F)F)c1` [Compound 196, 4-[[5-ethoxy-2-(4-fluorophenyl)-2H-1,2,3-triazol-4-yl]methyl]-2-(trifluoromethyl)pyridine], the “Plant response rating, Pigweed” value in experiment [1] (8 g ai/ha) is recorded as 85; in experiment [1] (16 g ai/ha), 95; in experiment [1] (31 g ai/ha), 95; in experiment [1] (62 g ai/ha), 95; in experiment [1] (125 g ai/ha), 95. Further, the “Plant response rating, Waterhemp, Res2” value in experiment [2] (8 g ai/ha) came to 90; in experiment [2] (16 g ai/ha), 90; in experiment [2] (31 g ai/ha), 95; in experiment [2] (62 g ai/ha) it was 95; in experiment [2] (125 g ai/ha), 95.
